# Reference: patent publication US20240317744A1, “Bicyclic Ureas As Kinase Inhibitors” (Incyte Corporation, priority 2023, published 2024)
# What was measured:
# [1] = target: T1, pseudo-kinase domain (JH2, amino-acids 536-812) of human V617F mutant JAK2 (Homo sapiens, UniProt O60674, F794H/V617F/W659A/W777A); experiment: JAK2 LanthaScreen JH2-V617F Binding Assay; conditions: JAK2 JH2-V617F 0.26 nM, 50 nM tracer, 1 hour at 25° C.; read-out: JH2 BIND V617F
# T1 construct: pseudo-kinase domain (JH2, amino-acids 536-812 with 3 surface mutations W659A, W777A, F794H); His (C); purchased BPS Bioscience 79498; host or cells: baculovirus expression system
# T1 sequence (O60674 536-812 V617F/W659A/W777A/F794H): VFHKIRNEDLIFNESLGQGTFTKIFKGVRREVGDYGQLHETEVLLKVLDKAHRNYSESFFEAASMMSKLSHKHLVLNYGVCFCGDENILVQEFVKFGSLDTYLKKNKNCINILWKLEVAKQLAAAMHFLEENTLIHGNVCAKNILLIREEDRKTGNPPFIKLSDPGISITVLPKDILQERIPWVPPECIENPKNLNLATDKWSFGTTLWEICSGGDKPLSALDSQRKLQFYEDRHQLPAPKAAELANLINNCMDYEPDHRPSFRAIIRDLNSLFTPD
# Protocol: Example C. JAK2 LanthaScreen JH2-V617F Binding Assay
# JAK2 JH2-V617F binding assay utilizes pseudo-kinase domain (JH2, amino-acids 536-812 with 3 surface mutations W659A, W777A, F794H) of human V617F mutant JAK2 expressed as C-terminal His-Avi-tagged, biotinylated protein in a baculovirus expression system (BPS Bioscience, Catalog #79498). The assay was conducted in black 384-well polystyrene plates in a final reaction volume of 20 μL. JAK2 JH2-V617F (0.26 nM) was incubated with compounds (100 nL serially diluted in DMSO) in the presence of 50 nM Fluorescent JAK2-JH2 Tracer (MedChem Express Catalog #HY-102055) and 0.25 nM Streptavidin-Tb cryptate (Cisbio Part #610SATLB) in assay buffer (50 mM Tris, pH=7.5, 10 mM MgCl2, 0.01% Brij-35, 0.1% BSA, 1 mM EGTA, 5% Glycerol and 5 mM DTT). Non-specific binding was accessed in the presence of 2 mM ATP. After incubation for 1 hour at 25° C., LanthaScreen signals were read on a PHERAstar FS plate reader (BMG LABTECH). Data was analyzed with IDBS XLfit and GraphPad Prism 5.0 software using a four parameter dose response curve to determine IC50 for each compound.
# [2] = target: catalytic domain (JH1, amino acids 808-1132) of human JAK2 (Homo sapiens, UniProt O60674); experiment: JAK2 HTRF Enzyme Activity Assay; assay type: biochemical; conditions: ATP 30 µM, 60 minutes at 25° C.; read-out: V617F ENZ 30 UM
# Sequence of catalytic domain (JH1, amino acids 808-1132) of human JAK2 (O60674 808-1132 limits assumed): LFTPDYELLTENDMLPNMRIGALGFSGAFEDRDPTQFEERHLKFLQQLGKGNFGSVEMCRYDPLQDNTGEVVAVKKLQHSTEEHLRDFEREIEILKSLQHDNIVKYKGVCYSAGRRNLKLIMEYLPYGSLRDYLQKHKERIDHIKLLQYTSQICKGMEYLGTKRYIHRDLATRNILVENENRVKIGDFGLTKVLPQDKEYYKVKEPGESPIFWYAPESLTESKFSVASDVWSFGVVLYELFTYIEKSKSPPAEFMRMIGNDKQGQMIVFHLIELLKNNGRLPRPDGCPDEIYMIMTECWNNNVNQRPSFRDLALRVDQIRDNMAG
SMILES,IC50 [1],IC50 [2]
"[2H]C([2H])([2H])n1c(=O)n(C23CCC(C(N)=O)(CC2)C3)c2cc(Nc3cc(C(C)(C)O)cc(-c4ncc(C(F)(F)F)s4)n3)ncc21 [Example 141, 4-(6-((4-(2-Hydroxypropan-2-yl)-6-(5-(trifluoromethyl)thiazol-2-yl)pyridin-2-yl)amino)-3-(methyl-d3)-2-oxo-2,3-dihydro-1H-imidazo[4,5-c]pyridin-1-yl)bicyclo[2.2.1]heptane-1-carboxamide]",≤ 10 nM,> 1000 nM
"[2H]C([2H])([2H])n1c(=O)n(C23CCC(NC(C)=O)(CC2)C3)c2cc(Nc3cc(C(C)(C)O)cc(-c4ncc(C(F)(F)F)s4)n3)ncc21 [Example 142, N-(4-(6-((4-(2-Hydroxypropan-2-yl)-6-(5-(trifluoromethyl)thiazol-2-yl)pyridin-2-yl)amino)-3-(methyl-d3)-2-oxo-2,3-dihydro-1H-imidazo[4,5-c]pyridin-1-yl)bicyclo[2.2.1]heptan-1-yl)acetamide]",≤ 10 nM,> 1000 nM
"[2H]C([2H])([2H])n1c(=O)n([C@@H]2CC[C@](C)(NC(=O)CC)C2)c2cc(Nc3cc(C(C)(C)O)cc(-c4ncc(C(F)(F)F)s4)n3)ncc21 [Example 143, N-((1S,3R)-3-(6-((4-(2-Hydroxypropan-2-yl)-6-(5-(trifluoromethyl)thiazol-2-yl)pyridin-2-yl)amino)-3-(methyl-d3)-2-oxo-2,3-dihydro-1H-imidazo[4,5-c]pyridin-1-yl)-1-methylcyclopentyl)propionamide]",≤ 10 nM,> 1000 nM
"[2H]C([2H])([2H])n1c(=O)n([C@@H]2CC[C@](C)(NC(C)=O)C2)c2cc(Nc3cc(C(C)(C)O)cc(-c4cnc(C(F)(F)F)s4)n3)ncc21 [Example 146, N-((1S,3R)-3-(6-((4-(2-Hydroxypropan-2-yl)-6-(2-(trifluoromethyl)thiazol-5-yl)pyridin-2-yl)amino)-3-(methyl-d3)-2-oxo-2,3-dihydro-1H-imidazo[4,5-c]pyridin-1-yl)-1-methylcyclopentyl)acetamide]",≤ 10 nM,> 1000 nM
"[2H]C([2H])([2H])n1c(=O)n([C@@H]2CC[C@@]([2H])(NC(=O)OC)C2)c2cc(Nc3cc(C(C)(C)O)cc(-c4ncc(C(O)(C(F)(F)F)C(F)(F)F)s4)n3)ncc21 [Example 147, Methyl ((1R,3R)-3-(6-((6-(5-(1,1,1,3,3,3-hexafluoro-2-hydroxypropan-2-yl)thiazol-2-yl)-4-(2-hydroxypropan-2-yl)pyridin-2-yl)amino)-3-(methyl-d3)-2-oxo-2,3-dihydro-1H-imidazo[4,5-c]pyridin-1-yl)cyclopentyl-1-d)carbamate]",≤ 10 nM,> 1000 nM
"[2H]C([2H])([2H])n1c(=O)n([C@@H]2CC[C@@]([2H])(NC(=O)OC)C2)c2cc(Nc3cc(C)cc(-c4ncc(C(C)(C)O)s4)n3)ncc21 [Example 148, Methyl ((1R,3R)-3-(6-((6-(5-(2-hydroxypropan-2-yl)thiazol-2-yl)-4-methylpyridin-2-yl)amino)-3-(methyl-d3)-2-oxo-2,3-dihydro-1H-imidazo[4,5-c]pyridin-1-yl)cyclopentyl-1-d)carbamate]",≤ 10 nM,> 1000 nM
"[2H]C([2H])([2H])n1c(=O)n([C@@H]2CC[C@@]([2H])(NC(=O)OC)C2)c2cc(Nc3cc(C)c(F)c(-c4ncc(C(C)(C)O)s4)n3)ncc21 [Example 149, Methyl ((1R,3R)-3-(6-((5-fluoro-6-(5-(2-hydroxypropan-2-yl)thiazol-2-yl)-4-methylpyridin-2-yl)amino)-3-(methyl-d3)-2-oxo-2,3-dihydro-1H-imidazo[4,5-c]pyridin-1-yl)cyclopentyl-1-d)carbamate]",≤ 10 nM,> 1000 nM
"[2H]C([2H])([2H])c1cc(Nc2cc3c(cn2)n(C([2H])([2H])[2H])c(=O)n3[C@@H]2CC[C@@]([2H])(NC(=O)OC)C2)nc(-c2ncc(C(C)(C)O)s2)c1 [Example 150, Methyl ((1R,3R)-3-(6-((6-(5-(2-hydroxypropan-2-yl)thiazol-2-yl)-4-(methyl-d3)pyridin-2-yl)amino)-3-(methyl-d3)-2-oxo-2,3-dihydro-1H-imidazo[4,5-c]pyridin-1-yl)cyclopentyl-1-d)carbamate]",≤ 10 nM,> 1000 nM
"[2H]C([2H])([2H])n1c(=O)n([C@@H]2CC[C@](C)(NC(C)=O)C2)c2cc(Nc3cc(C(C)(C)O)cc(-c4cnc(OC(C)C)s4)n3)ncc21 [Example 151, N-((1S,3R)-3-(6-((4-(2-hydroxypropan-2-yl)-6-(2-isopropoxythiazol-5-yl)pyridin-2-yl)amino)-3-(methyl-d3)-2-oxo-2,3-dihydro-1H-imidazo[4,5-c]pyridin-1-yl)-1-methylcyclopentyl)acetamide]",≤ 10 nM,> 1000 nM
"[2H]C([2H])([2H])n1c(=O)n([C@@H]2CC[C@](C)(NC(C)=O)C2)c2cc(Nc3cc(C(C)(C)O)cc(-c4cnc(OC)s4)n3)ncc21 [Example 152, N-((1S,3R)-3-(6-((4-(2-Hydroxypropan-2-yl)-6-(2-methoxythiazol-5-yl)pyridin-2-yl)amino)-3-(methyl-d3)-2-oxo-2,3-dihydro-1H-imidazo[4,5-c]pyridin-1-yl)-1-methylcyclopentyl)acetamide]",≤ 10 nM,> 1000 nM
"[2H]C([2H])([2H])n1c(=O)n([C@@H]2CC[C@](C)(NC(C)=O)C2)c2cc(Nc3cc(C(C)(C)O)cc(-c4cnc(OCC)s4)n3)ncc21 [Example 153, N-((1S,3R)-3-(6-((6-(2-Ethoxythiazol-5-yl)-4-(2-hydroxypropan-2-yl)pyridin-2-yl)amino)-3-(methyl-d3)-2-oxo-2,3-dihydro-1H-imidazo[4,5-c]pyridin-1-yl)-1-methylcyclopentyl)acetamide]",≤ 10 nM,> 1000 nM
"[2H]C([2H])([2H])n1c(=O)n([C@H]2C[C@H](NC(=O)OC)[C@@H](O)C2)c2cc(Nc3cc(C(C)(C)O)cc(-c4ncc(C(F)(F)F)s4)n3)ncc21 [Example 155, Methyl ((1S,2S,4S)-2-hydroxy-4-(6-((4-(2-hydroxypropan-2-yl)-6-(5-(trifluoromethyl)thiazol-2-yl)pyridin-2-yl)amino)-3-(methyl-d3)-2-oxo-2,3-dihydro-1H-imidazo[4,5-c]pyridin-1-yl)cyclopentyl)carbamate]",≤ 10 nM,> 1000 nM
"[2H]C([2H])([2H])n1c(=O)n([C@@H]2CC[C@@]([2H])(NC(=O)OC)C2)c2cc(Nc3cc(C(C)(C)O)cc(-c4ncc(C(F)(F)F)s4)n3)ncc21 [Example 158, Methyl ((1R,3R)-3-(6-((4-(2-hydroxypropan-2-yl)-6-(5-(trifluoromethyl)thiazol-2-yl)pyridin-2-yl)amino)-3-(methyl-d3)-2-oxo-2,3-dihydro-1H-imidazo[4,5-c]pyridin-1-yl)cyclopentyl-1-d)carbamate]",≤ 10 nM,> 1000 nM
"[2H]C([2H])([2H])n1c(=O)n([C@@H]2CC[C@]([2H])(NC(=O)OC)C2)c2cc(Nc3cc(C(C)(C)O)cc(-c4ncc(C(F)(F)F)s4)n3)ncc21 [Example 159, Methyl ((1S,3R)-3-(6-((4-(2-hydroxypropan-2-yl)-6-(5-(trifluoromethyl)thiazol-2-yl)pyridin-2-yl)amino)-3-(methyl-d3)-2-oxo-2,3-dihydro-1H-imidazo[4,5-c]pyridin-1-yl)cyclopentyl-1-d)carbamate]",≤ 10 nM,> 1000 nM
"[2H]C([2H])([2H])n1c(=O)n([C@@H]2CC[C@]([2H])(NC(=O)OC)C2)c2cc(Nc3cc(-c4cnccc4C(F)(F)F)c4nc(C)c(-c5cnn(C(F)F)c5)n4n3)ncc21 [Example 160, Methyl ((1S,3R)-3-(6-((3-(1-(difluoromethyl)-1H-pyrazol-4-yl)-2-methyl-8-(4-(trifluoromethyl)pyridin-3-yl)imidazo[1,2-b]pyridazin-6-yl)amino)-3-(methyl-d3)-2-oxo-2,3-dihydro-1H-imidazo[4,5-c]pyridin-1-yl)cyclopentyl-1-d)carbamate]",≤ 10 nM,> 1000 nM
"[2H]C([2H])([2H])n1c(=O)n([C@@H]2CC[C@@H](NC(=O)OC)C2)c2cc(Nc3cc(C4CCOCC4)cc(-c4ncc(C(C)(C)O)s4)n3)ncc21 [Example 161, Methyl ((1R,3R)-3-(6-((6-(5-(2-hydroxypropan-2-yl)thiazol-2-yl)-4-(tetrahydro-2H-pyran-4-yl)pyridin-2-yl)amino)-3-(methyl-d3)-2-oxo-2,3-dihydro-1H-imidazo[4,5-c]pyridin-1-yl)cyclopentyl)carbamate]",≤ 10 nM,> 1000 nM
"[2H]C([2H])([2H])n1c(=O)n([C@@H]2CC[C@@]([2H])(NC(=O)OC)C2)c2cc(Nc3cc(C4CCOCC4)cc(-c4ncc(C(C)(C)O)s4)n3)ncc21 [Example 162, Methyl ((1R,3R)-3-(6-((6-(5-(2-hydroxypropan-2-yl)thiazol-2-yl)-4-(tetrahydro-2H-pyran-4-yl)pyridin-2-yl)amino)-3-(methyl-d3)-2-oxo-2,3-dihydro-1H-imidazo[4,5-c]pyridin-1-yl)cyclopentyl-1-d)carbamate]",≤ 10 nM,> 1000 nM
